# Values quoted from earlier work as cited in patent publication US20230210793A1 (priority 2021, published 2023).
smiles,measurement,value
"O=NN(CCCl)C(=O)NCCCl [Carmustine, 1,3-bis(2-chloroethyl)-1-nitrosourea]",solubility in water,poorly soluble
